Counter-ions that a name gives are not always drawn. Like-named read-outs stand apart in the source and are kept apart here.
Assays:
[1] = system: HIV-1; assay: in vitro anti-HIV assay: inhibition of the HIV-induced cytopathic effect in MT-4 cells (MTT); format: cell-based; conditions: dose achieving 50% protection of HIV-infected MT-4 cells against cytopathic effect, OD 540 nm
Method: A rapid, sensitive and automated assay procedure was used for the in vitro evaluation of anti-HIV agents. An […] T4-cell line, MT-4, which was previously shown (Koyanagi et al., Int. J. Cancer, 36, 445-451, 1985) to be highly susceptible to and permissive for HIV infection, served as the target cell line. Inhibition of the HIV-induced cytopathic effect was used as the end point. The viability of both HIV- and mock-infected cells was assessed spectrophotometrically via the in situ reduction of 3-(4,5-dimethylthiazol-2-yl)-2,5-diphenyltetrazolium bromide (MTT). […] The percent protection achieved by the compound in HIV-infected cells was calculated by the following formula: [formula]
(§1) whereby (ODT)HIV is the optical density measured with a given concentration of the test compound in HIV-infected cells; (ODC)HIV is the optical density measured for the control untreated HIV-infected cells: (ODC)MOCK is the optical density measured for the control untreated mock-infected cells; all optical density values were determined at 540 nm. […] The ratio of CC50 to IC50 was defined as the selectivity index (SI).

[2] = system: MT-4 cells (mock-infected); assay: cytotoxicity in mock-infected MT-4 cells (MTT); format: cell-based
Method: A rapid, sensitive and automated assay procedure was used for the in vitro evaluation of anti-HIV agents. […] Inhibition of the HIV-induced cytopathic effect was used as the end point. The viability of both HIV- and mock-infected cells was assessed spectrophotometrically via the in situ reduction of 3-(4,5-dimethylthiazol-2-yl)-2,5-diphenyltetrazolium bromide (MTT). […] The percent protection achieved by the compound in HIV-infected cells was calculated by the following formula: [formula]
as §1

[3] = 50% cytotoxic concentration, reduces absorbance of mock-infected MT-4 control by 50%, MTT, read-out: CC50

SMILES	IC50 [1]	CC50 [2]	CC50 [2, 3]
N#Cc1ccc(Nc2nc(Cc3c(Cl)cccc3Cl)cc(NCCCCO)n2)cc1 [Compound 1]	0.027 µM	49.7 µM	
N#Cc1ccc(Nc2nc(Cc3c(Cl)cccc3Cl)cc(NCCO)n2)cc1 [Compound 2]	0.035 µM	> 100 µM	
N#Cc1ccc(Nc2nc(Cc3c(Cl)cccc3Cl)cc(NCC(O)c3ccccc3)n2)cc1 (stereo not shown) [Compound 4]	0.315 µM	> 100 µM	
N#Cc1ccc(Nc2nc(Cc3c(Cl)cccc3Cl)cc(NCCCN3CCCC3=O)n2)cc1 [Compound 5]		56.2 µM	
N#Cc1ccc(Nc2nc(Cc3c(Cl)cccc3Cl)cc(NCCOCCO)n2)cc1 [Compound 6]	0.02 µM	24.4 µM	
CC(C)OCCCNc1cc(Cc2c(Cl)cccc2Cl)nc(Nc2ccc(C#N)cc2)n1 [Compound 7]	0.975 µM	> 100 µM	
COc1cccc(CCNc2cc(Cc3c(Cl)cccc3Cl)nc(Nc3ccc(C#N)cc3)n2)c1 [Compound 8]	8.15 µM	> 100 µM	
N#Cc1ccc(Nc2nc(Cc3c(Cl)cccc3Cl)cc(NCC(O)CO)n2)cc1 (stereo not shown) [Compound 9]	0.037 µM	58.6 µM	
COc1ccc(CCNc2cc(Cc3c(Cl)cccc3Cl)nc(Nc3ccc(C#N)cc3)n2)cc1 [Compound 10]	2.53 µM	> 100 µM	
N#Cc1ccc(Nc2nc(Cc3c(Cl)cccc3Cl)cc(NCc3ccccc3)n2)cc1 [Compound 12]	1.68 µM	55.1 µM	
N#Cc1ccc(Nc2nc(Cc3c(Cl)cccc3Cl)cc(NCCc3cccs3)n2)cc1 [Compound 14]	2.18 µM	89 µM	
N#Cc1ccc(Nc2nc(Cc3c(Cl)cccc3Cl)cc(NO)n2)cc1 [Compound 15, 4-[[4-[(2,6-dichloro-phenyl)methyl]-6-(hydroxyamino)-2-pyrimidinyl]amino]benzonitrile dihydrobromide.pentahydrate]	0.003 µM	9 µM	
N#Cc1ccc(Nc2nc(Cc3c(Cl)cccc3Cl)cc(NCCc3ccccn3)n2)cc1 [Compound 16]	0.389 µM	41.2 µM	
CCCCCCCCCCCC(=O)Nc1cc(Cc2c(Cl)cccc2Cl)nc(Nc2ccc(C#N)cc2)n1 [Compound 18]	2.1 µM	59.9 µM	
N#CCCNc1cc(Cc2c(Cl)cccc2Cl)nc(Nc2ccc(C#N)cc2)n1 [Compound 19]	0.006 µM	53.6 µM	
CCOC(=O)Nc1cc(Cc2c(Cl)cccc2Cl)nc(Nc2ccc(C#N)cc2)n1 [Compound 20]	0.026 µM	36.5 µM	
CC(=O)Nc1cc(Cc2c(Cl)cccc2Cl)nc(Nc2ccc(C#N)cc2)n1 [Compound 21]	0.017 µM	50.6 µM	
CCCC(=O)Nc1cc(Cc2c(Cl)cccc2Cl)nc(Nc2ccc(C#N)cc2)n1 [Compound 22]	0.035 µM	12.2 µM	
N#Cc1ccc(Nc2nc(N)cc(Cc3c(Cl)cccc3Cl)n2)cc1 [Compound 23]	0.001 µM	47.9 µM	
CNc1cc(Cc2c(Cl)cccc2Cl)nc(Nc2ccc(C#N)cc2)n1 [Compound 24]	0.02 µM	54 µM	
Nc1cc(Cc2c(Cl)cccc2Cl)nc(Nc2ccc(Br)cc2)n1 [Compound 27]	0.017 µM		> 20 µM
Nc1nc(Cc2c(Cl)cccc2Cl)cc(Nc2ccc(Br)cc2)n1 [Compound 28]	0.079 µM		> 20 µM
Nc1cc(Cc2c(Cl)cccc2Cl)nc(Nc2ccc(Cl)cc2)n1 [Compound 29]	0.015 µM		> 20 µM
Nc1nc(Cc2c(Cl)cccc2Cl)cc(Nc2ccc(Cl)cc2)n1 [Compound 30]	0.088 µM		> 20 µM
Nc1nc(Cc2c(Cl)cccc2Cl)cc(Nc2ccc(Br)cn2)n1 [Compound 31]	0.024 µM		86.8 µM
Nc1cc(Cc2c(Cl)cccc2Cl)nc(Nc2ccc(Br)cn2)n1 [Compound 32]	0.403 µM		> 100 µM
Nc1cc(Cc2c(Cl)cccc2Cl)nc(Nc2ccc(F)cc2)n1 [Compound 33]	0.042 µM		43.4 µM

SMILES	IC50 [1]	CC50 [2]	CC50 [2, 3]
Nc1nc(Cc2c(Cl)cccc2Cl)cc(Nc2ccc(F)cc2)n1 [Compound 34]	0.319 µM		57.8 µM
Cc1ccc(Nc2nc(N)cc(Cc3c(Cl)cccc3Cl)n2)cc1 [Compound 35]	0.103 µM		42.3 µM
Cc1ccc(Nc2cc(Cc3c(Cl)cccc3Cl)nc(N)n2)cc1 [Compound 36]	0.323 µM		> 100 µM
Nc1cc(Cc2c(Cl)cccc2Cl)nc(Nc2ccccc2)n1 [Compound 37]	0.443 µM		33.4 µM
Nc1nc(Cc2c(Cl)cccc2Cl)cc(Nc2ccccc2)n1 [Compound 38]	2.45 µM		32.4 µM
N#Cc1ccc(Nc2cc(Cc3c(Cl)cccc3Cl)nc(NCCO)n2)cc1 [Compound 40]	0.253 µM		40.2 µM
CNc1nc(Cc2c(Cl)cccc2Cl)cc(Nc2ccc(C#N)cc2)n1 [Compound 41]	1.99 µM		34.2 µM
N#Cc1ccc(Nc2cc(Cc3c(Cl)cccc3Cl)nc(NCCCO)n2)cc1 [Compound 42]	0.352 µM		35.5 µM
N#Cc1ccc(Nc2cc(Cc3c(Cl)cccc3Cl)nc(NCCCCO)n2)cc1 [Compound 43]	0.603 µM		> 100 µM
N#Cc1ccc(Nc2cc(Cc3c(Cl)cccc3Cl)nc(N)n2)cc1 [Compound 45]	0.01 µM		56.3 µM
Cc1c(Cc2c(Cl)cccc2Cl)nc(N)nc1Nc1ccc(C#N)cc1 [Compound 46]	45.2 µM		> 100 µM
Cc1c(Cc2c(Cl)cccc2Cl)nc(N)nc1Nc1ccc(Br)cc1 [Compound 48]	44.2 µM		> 100 µM
Cc1c(N)nc(Nc2ccc(Br)cc2)nc1Cc1c(Cl)cccc1Cl [Compound 49]	0.058 µM		45.2 µM
N#Cc1ccc(Nc2cc(Oc3c(Cl)cccc3Cl)nc(N)n2)cc1 [Compound 50]	0.518 µM	52 µM	
N#Cc1ccc(Nc2cc(N)nc(Cc3c(Cl)cccc3Cl)n2)cc1 [Compound 51]	0.452 µM	> 100 µM	
Cc1cc(C)c(Nc2ccnc(Nc3ccc(C#N)cc3)n2)c(C)c1 [Compound 53, 4-[[4-[(2,4,6-trimethyl-phenyl)amino]-2-pyrimidinyl]amino]benzonitrile hydrochloride (1:1)]	0.0006 µM		1.3 µM
Cc1cc(Br)cc(C)c1Nc1ccnc(Nc2ccc(C#N)cc2)n1 [Compound 56]	0.0023 µM	1.9 µM	
Cc1cccc(C)c1Nc1ccnc(Nc2ccc(C#N)cc2)n1 [Compound 57]	0.0007 µM	0.8 µM	
N#Cc1ccc(Nc2nccc(Sc3c(Cl)cccc3Cl)n2)cc1 [Compound 59]	0.0012 µM	> 100 µM	
N#Cc1ccc(Nc2nccc(Oc3c(Cl)cc(Cl)cc3Cl)n2)cc1 [Compound 60]	0.29 µM	> 100 µM	
CC(C)c1cc(Br)c(Nc2ccnc(Nc3ccc(C#N)cc3)n2)c(Br)c1 [Compound 62]	0.0032 µM	8.7 µM	
Cc1cc(C)c(Nc2nc(Nc3ccc(C#N)cc3)ncc2C)c(C)c1 [Compound 63]	0.0017 µM	0.3 µM	
Cc1cc(Cl)cc(Cl)c1Oc1ccnc(Nc2ccc(C#N)cc2)n1 [Compound 64]	0.12 µM	> 100 µM	
N#Cc1ccc(Nc2nccc(Nc3c(Cl)cccc3Cl)n2)cc1 [Compound 65]	0.18 µM	0.2 µM	
N#Cc1ccc(Nc2nccc(Nc3c(Cl)cc(F)cc3Br)n2)cc1 [Compound 67]	0.0024 µM	0.4 µM	
Cc1cc(Cl)cc(Cl)c1Nc1ccnc(Nc2ccc(C#N)cc2)n1 [Compound 68]	0.001 µM	1.4 µM	
Cc1cnc(Nc2ccc(C#N)cc2)nc1Nc1c(C)cc(C#N)cc1C [Compound 83]	0.0008 µM		
